Where a name gives a salt, the structure may show the parent alone.
Tested on: patients with cerebral infarction or hemorrhage accompanied by various mental disorders
Assay: Clinical trial of SM-9018 for mental disorders associated with cerebrovascular disorders
Type: in vivo
Conditions: 8 weeks
Method: Examination 1 Clinical trial of SM-9018 for mental disorders associated with cerebrovascular disorders.
SM-9018 was administered to patients with cerebral infarction or hemorrhage accompanied by various mental disorders described above to examine whether the mental disorders will be improved or not.
One mg/dosage of SM-9018 was orally administered once (Step I), twice (Step II) or 3 times a day (Step III) for up to 2 weeks after the administration was started and, when the treatment was effective, administration thereof was continued.
[2] Administration periods: 8 weeks
Improvement of the mental disorders was evaluated by categorizing into 4 grades: i.e. 1) "excellent", 2) "moderate", 3) "slight", or 4) "unchanged" or other. Among the results obtained, "the number of patients categorized to 1) + 2) divided by the number of patients tested" for each symptom is summarized in the following Tables 1 to 3.

[1] = Step I: 1 mg orally once a day (increased to 1 mg x 2 times/day if no effect)
[2] = Step I: 1 mg orally once a day (increased to 1 mg x 2 times/day if no effect), 35 patients examined
[3] = Step II: 1 mg orally twice a day (increased to 2 mg x 2 times/day if no effect)
[4] = Step II: 1 mg orally twice a day (increased to 2 mg x 2 times/day if no effect), 28 patients examined
[5] = Step III: 1 mg orally 3 times a day (increased to 2 mg x 3 times/day if no effect)
[6] = Step III: 1 mg orally 3 times a day (increased to 2 mg x 3 times/day if no effect), 20 patients examined

## O=C1[C@H]2CCCC[C@H]2C(=O)N1CCCCN1CCN(c2nsc3ccccc23)CC1 [SM-9018, N-[4-[4-(1,2-benzisothiazol-3-yl)-1-piperazinyl]butyl]-1,2-cis-cyclohexandicarboxyimide hydrochloride]
[1]
  Aggressive behavior: number of patients categorized to 1) + 2) divided by the number of patients tested: 2/7
  Anxiety: number of patients categorized to 1) + 2) divided by the number of patients tested: 3/22
  Bad humor: number of patients categorized to 1) + 2) divided by the number of patients tested: 4/18
  Delirium: number of patients categorized to 1) + 2) divided by the number of patients tested: 1/4
  Depressive mood: number of patients categorized to 1) + 2) divided by the number of patients tested: 4/25
  Emotional incontinence: number of patients categorized to 1) + 2) divided by the number of patients tested: 2/13
  Emotional tension: number of patients categorized to 1) + 2) divided by the number of patients tested: 2/18
  Fugue: number of patients categorized to 1) + 2) divided by the number of patients tested: 1/6
  Irritability: number of patients categorized to 1) + 2) divided by the number of patients tested: 4/25
  Mental excitement: number of patients categorized to 1) + 2) divided by the number of patients tested: 2/14
  Reduced expression of desires: number of patients categorized to 1) + 2) divided by the number of patients tested: 3/29
  Reduced initiative in activities: number of patients categorized to 1) + 2) divided by the number of patients tested: 3/30
  Reduced interest in housework, amusement, pastime and the like: number of patients categorized to 1) + 2) divided by the number of patients tested: 4/31
  Reduced positiveness to an influence: number of patients categorized to 1) + 2) divided by the number of patients tested: 5/30
  Total emotional disorders: number of patients categorized to 1) + 2) divided by the number of patients tested: 8/33
  Total loss of spontaneity: number of patients categorized to 1) + 2) divided by the number of patients tested: 4/32
  Total problem behavior: number of patients categorized to 1) + 2) divided by the number of patients tested: 2/18
  patients with some improvement of mental disorders, including those judged as "slight" (global evaluation): about 77%
[2]
  Final global improvement rating: Excellent (number of patients): 2
  Final global improvement rating: Moderate (number of patients): 5
  Final global improvement rating: Slight (number of patients): 20
[3]
  Aggressive behavior: number of patients categorized to 1) + 2) divided by the number of patients tested: 3/4
  Anxiety: number of patients categorized to 1) + 2) divided by the number of patients tested: 4/23
  Bad humor: number of patients categorized to 1) + 2) divided by the number of patients tested: 9/21
  Delirium: number of patients categorized to 1) + 2) divided by the number of patients tested: 2/5
  Depressive mood: number of patients categorized to 1) + 2) divided by the number of patients tested: 8/23
  Emotional incontinence: number of patients categorized to 1) + 2) divided by the number of patients tested: 3/13
  Emotional tension: number of patients categorized to 1) + 2) divided by the number of patients tested: 3/18
  Fugue: number of patients categorized to 1) + 2) divided by the number of patients tested: 1/3
  Irritability: number of patients categorized to 1) + 2) divided by the number of patients tested: 5/19
  Mental excitement: number of patients categorized to 1) + 2) divided by the number of patients tested: 4/10
  Reduced expression of desires: number of patients categorized to 1) + 2) divided by the number of patients tested: 5/23
  Reduced initiative in activities: number of patients categorized to 1) + 2) divided by the number of patients tested: 5/26
  Reduced interest in housework, amusement, pastime and the like: number of patients categorized to 1) + 2) divided by the number of patients tested: 6/27
  Reduced positiveness to an influence: number of patients categorized to 1) + 2) divided by the number of patients tested: 6/23
  Total emotional disorders: number of patients categorized to 1) + 2) divided by the number of patients tested: 11/28
  Total loss of spontaneity: number of patients categorized to 1) + 2) divided by the number of patients tested: 8/27
  Total problem behavior: number of patients categorized to 1) + 2) divided by the number of patients tested: 5/10
  patients with some improvement of mental disorders, including those judged as "slight" (global evaluation): about 75%
[4]
  Final global improvement rating: Excellent (number of patients): 3
  Final global improvement rating: Moderate (number of patients): 10
  Final global improvement rating: Slight (number of patients): 8
[5]
  Aggressive behavior: number of patients categorized to 1) + 2) divided by the number of patients tested: 2/5
  Anxiety: number of patients categorized to 1) + 2) divided by the number of patients tested: 6/19
  Bad humor: number of patients categorized to 1) + 2) divided by the number of patients tested: 6/16
  Delirium: number of patients categorized to 1) + 2) divided by the number of patients tested: 1/4
  Depressive mood: number of patients categorized to 1) + 2) divided by the number of patients tested: 6/18
  Emotional incontinence: number of patients categorized to 1) + 2) divided by the number of patients tested: 2/10
  Emotional tension: number of patients categorized to 1) + 2) divided by the number of patients tested: 5/15
  Fugue: number of patients categorized to 1) + 2) divided by the number of patients tested: 0/3
  Irritability: number of patients categorized to 1) + 2) divided by the number of patients tested: 5/16
  Mental excitement: number of patients categorized to 1) + 2) divided by the number of patients tested: 3/8
  Reduced expression of desires: number of patients categorized to 1) + 2) divided by the number of patients tested: 3/16
  Reduced initiative in activities: number of patients categorized to 1) + 2) divided by the number of patients tested: 6/17
  Reduced interest in housework, amusement, pastime and the like: number of patients categorized to 1) + 2) divided by the number of patients tested: 8/16
  Reduced positiveness to an influence: number of patients categorized to 1) + 2) divided by the number of patients tested: 3/17
  Total emotional disorders: number of patients categorized to 1) + 2) divided by the number of patients tested: 10/20
  Total loss of spontaneity: number of patients categorized to 1) + 2) divided by the number of patients tested: 9/18
  Total problem behavior: number of patients categorized to 1) + 2) divided by the number of patients tested: 3/10
  patients with some improvement of mental disorders, including those judged as "slight" (global evaluation): about 80%
[6]
  Final global improvement rating: Excellent (number of patients): 6
  Final global improvement rating: Moderate (number of patients): 7
  Final global improvement rating: Slight (number of patients): 3

Source: patent publication EP1181935A2, “Agent for treating mental disorders associated with cerebrovascular disorders” (SUMITOMO PHARMACEUTICALS COMPANY, LIMITED, priority 1995, dated 1996)
